The source made the active and inactive calls. How the calls were made is not given here.
Test system: rodent carcinogenicity bioassays, tumor incidence
Assay: CCRIS carcinogenicity studies
Summary of the method: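 NCI-built, expert-reviewed records of carcinogenicity and related test outcomes (mutagenicity, tumor promotion/inhibition) compiled from published and report sources, historical span 1985-2011, not updated.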

In the case of `NC(=O)N/N=C/c1ccc([N+](=O)[O-])o1`, the carcinogen call (Species: MOUSE, Strain/Sex: B6C3F1/FEMALE, Route: ORAL, Dose: 0, 150, 310 PPM IN DIET (STUDY DURATION: 2 YR), Dose: 0, 150, 310 PPM IN DIET (STUDY DURATION: 2 YR), Tumor Site: Type of Lesion: OVARIES: GRANULOSA CELL TUMOR) is reported as “active; positive”, the carcinogen call (Species: MOUSE, Strain/Sex: B6C3F1/FEMALE, Route: ORAL, Dose: 0, 150, 310 PPM IN DIET FOR 103 WK (STUDY DURATION: 105 WK), Dose: 0, 150, 310 PPM IN DIET FOR 103 WK (STUDY DURATION: 105 WK), Tumor Site: Type of Lesion: OVARY: GRANULOSA CELL TUMOR, OVARY: GRANULOSA CELL TUMOR OR LUTEOMA;OVARY: MIXED TUMOR,BENIGN, OVARY: TUBULAR CELL ADENO, Tumor Site: Type of Lesion: OVARY: GRANULOSA CELL TUMOR, OVARY: GRANULOSA CELL TUMOR OR LUTEOMA;OVARY: MIXED TUMOR,BENIGN, OVARY: TUBULAR CELL ADENO) is reported as “active; positive” and the carcinogen call (Species: MOUSE, Strain/Sex: B6C3F1/MALE, Route: ORAL, Dose: 0, 150, 310 PPM IN DIET (STUDY DURATION: 2 YR), Dose: 0, 150, 310 PPM IN DIET (STUDY DURATION: 2 YR)) is reported as “inactive; negative”. The carcinogen call (Species: MOUSE, Strain/Sex: B6C3F1/MALE, Route: ORAL, Dose: 0, 150, 310 PPM IN DIET FOR 103 WK (STUDY DURATION: 105 WK), Dose: 0, 150, 310 PPM IN DIET FOR 103 WK (STUDY DURATION: 105 WK)) was “inactive; negative”, the carcinogen call (Species: MOUSE, Strain/Sex: ICR/MALE, FEMALE, Route: SUBCUTANEOUS, Dose: 0, 75 UG/G ONCE WITHIN 12 HR OF BIRTH AND ONCE ON DAYS 7,14 AND 21 OF AGE (STUDY DURATION: 32 WK), Tumor Site: Type of Lesion: LUNG: PAPILLARY ADENOMA) was “active; positive” and the carcinogen call (Species: MOUSE, Strain/Sex: ICR/MALE, FEMALE, Route: TRANSPLACENTAL, Dose: 0, 75 UG/G ADMINISTERED SUBCUTANEOUSLY TO MOTHERS ON DAYS 13, 15 AND 17 OF GESTATION (STUDY DURATION: 33 WK)) was “inactive; negative”. For the same molecule, the carcinogen call (Species: RAT, Strain/Sex: F344/FEMALE, Route: ORAL, Dose: 0, 310, 620 PPM IN DIET FOR 103 WK (STUDY DURATION: 105 WK), Dose: 0, 310, 620 PPM IN DIET FOR 103 WK (STUDY DURATION: 105 WK), Tumor Site: Type of Lesion: MAMMARY GLAND: FIBROADENOMA) was “active; positive”, the carcinogen call (Species: RAT, Strain/Sex: F344/MALE, Route: ORAL, Dose: 0, 310, 620 PPM IN DIET FOR 103 WK (STUDY DURATION: 105 WK), Dose: 0, 310, 620 PPM IN DIET FOR 103 WK (STUDY DURATION: 105 WK), Tumor Site: Type of Lesion: SEBACEOUS GLAND: ADENOMA, SKIN: TRICHOEPITHELIOMA, TUNICA VAGINALIS: MESOTHELIOMA, PREPUTIAL GLAND: ADENOMA, CARCINOMA, Tumor Site: Type of Lesion: SEBACEOUS GLAND: ADENOMA, SKIN: TRICHOEPITHELIOMA, TUNICA VAGINALIS: MESOTHELIOMA, PREPUTIAL GLAND: ADENOMA, CARCINOMA) was “equivocal” and the carcinogen call (Species: RAT, Strain/Sex: F344 INBRED/FEMALE, Route: ORAL, Dose: 0, 310, 620 PPM IN DIET (STUDY DURATION: 2 YR), Dose: 0, 310, 620 PPM IN DIET (STUDY DURATION: 2 YR), Tumor Site: Type of Lesion: MAMMARY GLAND: FIBROADENOMA) was “active; positive”.

`Cn1c2ccccc2c2ccccc21` was tested, and the carcinogen call (Species: MOUSE, Strain/Sex: CD-1/FEMALE, Route: INTRAPERITONEAL, Dose: 0, 1.75 UMOL/MOUSE (TOTAL DOSE) ADMINISTERED DURING DAYS 1, 8, AND 15 OF LIFE (STUDY DURATION: 52 WK)) was “inactive; negative” and the carcinogen call (Species: MOUSE, Strain/Sex: CD-1/MALE, Route: INTRAPERITONEAL, Dose: 0, 1.75 UMOL/MOUSE (TOTAL DOSE) ADMINISTERED DURING DAYS 1, 8, AND 15 OF LIFE (STUDY DURATION: 52 WK)) was “inactive; negative”.

For `C/C=C(/C)C(=O)O[C@H]1CCN2CC=C(COC(=O)[C@@](O)([C@H](C)OC)C(C)(C)O)[C@H]12`, the carcinogen call (Species: RAT, Route: INTRAPERITONEAL, Tumor Site: Type of Lesion: INTESTINES, LIVER, INTEGUMENTARY SYSTEM (SKIN), Tumor Site: Type of Lesion: INTESTINES, LIVER, INTEGUMENTARY SYSTEM (SKIN)) was “active; positive”, the carcinogen call (Species: RAT, Strain/Sex: F344/FEMALE, Route: ORAL, Dose: 0, 7, 15, 30 PPM IN DIET, Dose: 0, 7, 15, 30 PPM IN DIET, Tumor Site: Type of Lesion: LIVER: HEPATOCELLULAR CARCINOMA OR ADENOMA (NOS), ANGIOSARCOMA, HEMATOPOIETIC SYSTEM (LEUKEMIA), LYMPHATIC SYSTEM: LYMPH, Tumor Site: Type of Lesion: LIVER: HEPATOCELLULAR CARCINOMA OR ADENOMA (NOS), ANGIOSARCOMA, HEMATOPOIETIC SYSTEM (LEUKEMIA), LYMPHATIC SYSTEM: LYMPH) was “active; positive” and the carcinogen call (Species: RAT, Strain/Sex: F344/MALE, Route: ORAL, Dose: 0, 7, 15, 30 PPM IN DIET, Dose: 0, 7, 15, 30 PPM IN DIET, Tumor Site: Type of Lesion: LIVER: HEPATOCELLULAR CARCINOMA OR ADENOMA (NOS), ANGIOSARCOMA) was “active; positive”.

`Nc1nc(/C=C/c2ccc([N+](=O)[O-])o2)no1` was tested, and the carcinogen call (Species: MOUSE, Strain/Sex: CD-1/FEMALE, Route: GAVAGE, Dose: 0, 41, 82, 173 MG/KG/D SUSPENDED IN 25% GLYCEROL 4 D/WK FOR 371 D (TOTAL DOSE 0; 15.4; 30.9; 64.2 G) (STUDY DURATION: LI, Dose: 0, 41, 82, 173 MG/KG/D SUSPENDED IN 25% GLYCEROL 4 D/WK FOR 371 D (TOTAL DOSE 0; 15.4; 30.9; 64.2 G) (STUDY DURATION: LI, Tumor Site: Type of Lesion: THYMUS: LYMPHOMA, BLADDER: TRANSITIONAL CELL CARCINOMA, STOMACH: SQUAMOUS CELL CARCINOMA, SQUAMOUS PAPILLOMA, LUNG: ADEN, Tumor Site: Type of Lesion: THYMUS: LYMPHOMA, BLADDER: TRANSITIONAL CELL CARCINOMA, STOMACH: SQUAMOUS CELL CARCINOMA, SQUAMOUS PAPILLOMA, LUNG: ADEN) was “active; positive”, the carcinogen call (Species: MOUSE, Strain/Sex: CD-1/FEMALE, Route: ORAL, Dose: 0, 0.17% IN DIET FOR 58 WK (STUDY DURATION: 91 WK), Tumor Site: Type of Lesion: HEMATOPOIETIC SYSTEM: LYMPHOMA, THYMUS: LYMPHOMA, STOMACH: SQUAMOUS CELL CARCINOMA, SPINDLE CELL TUMOR, Tumor Site: Type of Lesion: HEMATOPOIETIC SYSTEM: LYMPHOMA, THYMUS: LYMPHOMA, STOMACH: SQUAMOUS CELL CARCINOMA, SPINDLE CELL TUMOR) was “active; positive” and the carcinogen call (Species: MOUSE, Strain/Sex: CD-1/FEMALE, Route: ORAL, Dose: 0, 0.25% IN DIET FOR 31 WK (STUDY DURATION: LIFE), Tumor Site: Type of Lesion: THYMUS: LYMPHOMA, STOMACH: SQUAMOUS CELL CARCINOMA, LUNG: ADENOMA, MAMMARY GLAND: ADENOCARCINOMA, Tumor Site: Type of Lesion: THYMUS: LYMPHOMA, STOMACH: SQUAMOUS CELL CARCINOMA, LUNG: ADENOMA, MAMMARY GLAND: ADENOCARCINOMA) was “active; positive”. For the same molecule, the carcinogen call (Species: MOUSE, Strain/Sex: CD-1/MALE, Route: GAVAGE, Dose: 0, 45, 87, 185 MG/KG/D SUSPENDED IN 25% GLYCEROL 4 D/WK FOR 371 D (TOTAL DOSE 0; 16.8; 32.3; 68.8 G) (STUDY DURATION: LI, Dose: 0, 45, 87, 185 MG/KG/D SUSPENDED IN 25% GLYCEROL 4 D/WK FOR 371 D (TOTAL DOSE 0; 16.8; 32.3; 68.8 G) (STUDY DURATION: LI, Tumor Site: Type of Lesion: THYMUS: LYMPHOMA, BLADDER: TRANSITIONAL CELL CARCINOMA, STOMACH: SQUAMOUS CELL CARCINOMA, SQUAMOUS PAPILLOMA, LUNG: ADEN, Tumor Site: Type of Lesion: THYMUS: LYMPHOMA, BLADDER: TRANSITIONAL CELL CARCINOMA, STOMACH: SQUAMOUS CELL CARCINOMA, SQUAMOUS PAPILLOMA, LUNG: ADEN) was “active; positive”, the carcinogen call (Species: MOUSE, Strain/Sex: CD-1/MALE, Route: ORAL, Dose: 0, 0.18% IN DIET FOR 58 WK (STUDY DURATION: 92 WK), Tumor Site: Type of Lesion: THYMUS: LYMPHOMA, BLADDER: TRANSITIONAL CELL CARCINOMA, STOMACH: SQUAMOUS CELL CARCINOMA, SPINDLE CELL TUMOR, Tumor Site: Type of Lesion: THYMUS: LYMPHOMA, BLADDER: TRANSITIONAL CELL CARCINOMA, STOMACH: SQUAMOUS CELL CARCINOMA, SPINDLE CELL TUMOR) was “active; positive” and the carcinogen call (Species: MOUSE, Strain/Sex: CD-1/MALE, Route: ORAL, Dose: 0, 0.25% IN DIET FOR 38 WK (STUDY DURATION: LIFE), Tumor Site: Type of Lesion: THYMUS: LYMPHOMA, BLADDER: TRANSITIONAL CELL CARCINOMA, SPINDLE CELL TUMOR, STOMACH: SQUAMOUS CELL CARCINOMA, SQUAMOUS P, Tumor Site: Type of Lesion: THYMUS: LYMPHOMA, BLADDER: TRANSITIONAL CELL CARCINOMA, SPINDLE CELL TUMOR, STOMACH: SQUAMOUS CELL CARCINOMA, SQUAMOUS P) was “active; positive”.

Source: PubChem BioAssay AID1259411 (Chemical Carcinogenesis Research Information System (CCRIS), 2018)
